# Read-outs that look alike come from different tables or passages of the source. Marks after values point to notes of the source that are not given here.
# Experiments:
# WSU-DLCL2 = assay: growth inhibition by PCI-32765, WSU-DLCL2; assay type: cell-based; settings: Homo sapiens, WSUDLCL2; WSU-DLCL2, FL-transformed
# [1] = test system: Mino, Jekol and JVM-1 cells; assay: migration assay, CXCL12-induced; settings: Mino and Jekol more sensitive than JVM-1
# Mino cells = assay: co-culture assay: migration of Mino cells beneath M2-10B4 stromal cells (pseudoemperipoliesis); assay type: cell-based, human; settings: significant at 100 nM (p<0.01) and 1000 nM (p<0.001)
# clinical = settings: human, plasma; for AUC(0-inf): Mean (CV) AUC0-∞; for AUC(0-t): Mean AUC0-24h, steady state (Day 8)
# [2] = test system: subjects with B-cell malignancies
# Text: The dose-escalation portion of this open-label trial enrolled subjects with B-cell malignancies (histologies listed in Table 2, below) and is now completed.
# Jekol cells = assay: adhesion assay, chemokine-mediated, Jekol; settings: Homo sapiens, read-out: inhibition of adhesion to VCAM1 or fibronectin following CXCL12 or CXCL13 activations
# primary MCL cells = assay: co-culture assay: pseudoemperipoliesis of primary MCL cells with M2 stromal cells; assay type: cell-based, human; settings: 100 nM
# [3] = test system: relapsed/refractory subjects with MCL; assay: phase II study of PCI-32765 in relapsed/refractory MCL; settings: for Discontinuation: Adverse event / Discontinuation: Disease Progression / Death on study: 560 mg/day
# DoHH2 cells = assay: Alamar blue assay in DoHH2 cells; assay type: cell-based
# Mino and Jekol cells = assay: chemokine and cytokine secretion of MCL cell lines after BCR activation or in stromal co-culture; assay type: cell-based, human; settings: following BCR activation or in co-culture
# Ramos = assay: growth inhibition by PCI-32765, Ramos; assay type: cell-based; settings: Homo sapiens, Burkitt's
# DHL-4 = assay: growth inhibition by PCI-32765, DHL-4; assay type: cell-based; settings: Homo sapiens; DHL-4, DLBCL, GCB
compound,measurement,setting,value
"C=CC(=O)N1CCC[C@@H](n2nc(-c3ccc(Oc4ccccc4)cc3)c3c(N)ncnc32)C1 [PCI-32765, (R)-1-(3-(4-amino-3-(4-phenoxyphenyl)-1H-pyrazolo[3,4-d]pyrimidin-1-yl)piperidin-1-yl)prop-2-en-1-one]",GI50,WSU-DLCL2,0.5 µM
same,CXCL12-induced migration,[1],dose-dependently inhibited
same,migration of Mino cells beneath the stromal cells,Mino cells,dose-dependently inhibited
same,AUC(0-inf),"clinical; 1.25 mg/kg, Day 1, cohort 1, 1.25 mg/kg",181 ng·h/mL
same,Tmax,"clinical; 1.25 mg/kg, Mean (CV) Tmax, Day 1, cohort 1, 1.25 mg/kg",1 h
same,AUC(0-t),"clinical; 1.25 mg/kg, cohort 1, 1.25 mg/kg",301 ng·h/mL
same,AUC(0-inf),"clinical; 5 mg/kg, Day 1, cohort 3, 5 mg/kg",419 ng·h/mL
same,Tmax,"clinical; 5 mg/kg, Mean (CV) Tmax, Day 1, cohort 3, 5 mg/kg",2.3 h
same,AUC(0-t),"clinical; 5 mg/kg, cohort 3, 5 mg/kg",1580 ng·h/mL
same,AUC(0-inf),"clinical; 8.3 mg/kg, Day 1, cohort 4, 8.3 mg/kg",923 ng·h/mL
same,AUC(0-inf),"clinical; 8.3 mg/kg, Day 1, cohort CD (continuous dosing), 8.3 mg/kg",1030 ng·h/mL
same,Tmax,"clinical; 8.3 mg/kg, Mean (CV) Tmax, Day 1, cohort 4, 8.3 mg/kg",1.8 h
same,Tmax,"clinical; 8.3 mg/kg, Mean (CV) Tmax, Day 1, cohort CD (continuous dosing), 8.3 mg/kg",2.2 h
same,AUC(0-t),"clinical; 8.3 mg/kg, cohort 4, 8.3 mg/kg",2330 ng·h/mL
same,AUC(0-t),"clinical; 8.3 mg/kg, cohort CD (continuous dosing), 8.3 mg/kg",1540 ng·h/mL
same,AUC(0-inf),"clinical; 12.5 mg/kg, Day 1, cohort 5, 12.5 mg/kg",1550 ng·h/mL
same,Tmax,"clinical; 12.5 mg/kg, Mean (CV) Tmax, Day 1, cohort 5, 12.5 mg/kg",1.7 h
same,AUC(0-t),"clinical; 12.5 mg/kg, cohort 5, 12.5 mg/kg",2940 ng·h/mL
same,AUC(0-inf),"clinical; 560 mg, Day 1, Fixed cohort, 560 mg fixed dose",749 ng·h/mL
same,Tmax,"clinical; 560 mg, Mean (CV) Tmax, Day 1, Fixed cohort, 560 mg fixed dose",1.8 h
same,AUC(0-t),"clinical; 560 mg, Fixed cohort, 560 mg fixed dose",1550 ng·h/mL
same,Tmax,"clinical; […], Mean (CV) Tmax, Day 1, cohort 2, […]",2.1 h
same,Tmax,"clinical; time to maximum plasma concentration (Tmax), range over dose levels",1 to 2.3 h
same,CR,[2]; DLBCL (7 patients),0
same,ORR (ITT),[2]; DLBCL (7 patients),29%
same,ORR (evaluable pts),[2]; DLBCL (7 patients),29%
same,PD,[2]; DLBCL (7 patients),4
same,PR,[2]; DLBCL (7 patients),2
same,CR,[2]; FL (16 patients),3
same,ORR (ITT),[2]; FL (16 patients),38%
same,ORR (evaluable pts),[2]; FL (16 patients),46%
same,PD,[2]; FL (16 patients),4
same,PR,[2]; FL (16 patients),3
same,CR,[2]; MCL (9 patients),3
same,PD,[2]; MCL (9 patients),1
same,PR,[2]; MCL (9 patients),4
same,CR,[2]; MZL/MALT (4 patients),0
same,ORR (ITT),[2]; MZL/MALT (4 patients),25%
same,ORR (evaluable pts),[2]; MZL/MALT (4 patients),33%
same,PD,[2]; MZL/MALT (4 patients),1
same,PR,[2]; MZL/MALT (4 patients),1
same,ORR (ITT),[2]; Overall (56 patients),54%
same,PD,[2]; Overall (56 patients),10
same,CR,[2]; WM (4 patients),0
same,PR,[2]; WM (4 patients),3
same,inhibition at 0.1 µM,Jekol cells,20 to 30%
same,pseudoemperipoliesis of primary MCL (hCD19+ cells),primary MCL cells,inhibited
same,Discontinuation: Adverse event,[3]; Bortezomib-Exposed (N = 27),1 (4) # (%)
same,Discontinuation: Disease Progression,[3]; Bortezomib-Exposed (N = 27),6 (22) # (%)
same,Death on study,"[3]; Bortezomib-Exposed (N = 27), pneumonia",1 (4) # (%)
same,Death on study,[3]; Bortezomib-Naïve (N = 41),0 (0) # (%)
same,Discontinuation: Adverse event,[3]; Bortezomib-Naïve (N = 41),2 (5) # (%)
same,Discontinuation: Disease Progression,[3]; Bortezomib-Naïve (N = 41),7 (17) # (%)
same,Death on study,[3]; Total (N = 68),1 (2) # (%)
same,Discontinuation: Adverse event,[3]; Total (N = 68),3 (4) # (%)
same,Discontinuation: Disease Progression,[3]; Total (N = 68),13 (19) # (%)
same,myelosuppression,[3]; during the study,No significant myelosuppression
same,sensitivity of DOHH2 cell line,DoHH2 cells,moderately sensitive
same,"production of human IL-10, MDC, MIP-1α, MIP-1β, TNFα, CCL17 and CCL21",Mino and Jekol cells,dose dependently and potently suppressed
same,GI50,Ramos,5.5 µM
same,GI50,DHL-4,0.53 µM

# — patent publication US20170266186A1, “USE OF INHIBITORS OF BRUTON'S TYROSINE KINASE (BTK)” (Pharmacyclics LLC, priority 2011, published 2017)
